Source: patent publication US20250313548A1 (Actio Biosciences, Inc., priority 2023, published 2025)
Counter-ions that a name gives are not always drawn.

Target: human, KCNT1 (Homo sapiens (Human), UniProt Q5JUK3)
Test: FLIPR Tl/K Flux Assay
Assay type: cell-based
Conditions: HEK293 cells stably expressing human KCNT1; Tl+ flux stimulated with EC80 of agonist Loxapine
Summary of the method: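 HEK293 cells stably expressing human KCNT1 were loaded with FLIPR potassium dye in HEPES/HBSS pH 7.4 with 5 mM probenecid, 1 h at 25 °C, then given test compound for 30 min at 25 °C. Tl+ flux was triggered with chloride-free buffer containing Tl+ and EC80 loxapine and read 160 s. IC50 came from Hill fits of % inhibition.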

human, KCNT1, sequence (Q5JUK3 whole entry): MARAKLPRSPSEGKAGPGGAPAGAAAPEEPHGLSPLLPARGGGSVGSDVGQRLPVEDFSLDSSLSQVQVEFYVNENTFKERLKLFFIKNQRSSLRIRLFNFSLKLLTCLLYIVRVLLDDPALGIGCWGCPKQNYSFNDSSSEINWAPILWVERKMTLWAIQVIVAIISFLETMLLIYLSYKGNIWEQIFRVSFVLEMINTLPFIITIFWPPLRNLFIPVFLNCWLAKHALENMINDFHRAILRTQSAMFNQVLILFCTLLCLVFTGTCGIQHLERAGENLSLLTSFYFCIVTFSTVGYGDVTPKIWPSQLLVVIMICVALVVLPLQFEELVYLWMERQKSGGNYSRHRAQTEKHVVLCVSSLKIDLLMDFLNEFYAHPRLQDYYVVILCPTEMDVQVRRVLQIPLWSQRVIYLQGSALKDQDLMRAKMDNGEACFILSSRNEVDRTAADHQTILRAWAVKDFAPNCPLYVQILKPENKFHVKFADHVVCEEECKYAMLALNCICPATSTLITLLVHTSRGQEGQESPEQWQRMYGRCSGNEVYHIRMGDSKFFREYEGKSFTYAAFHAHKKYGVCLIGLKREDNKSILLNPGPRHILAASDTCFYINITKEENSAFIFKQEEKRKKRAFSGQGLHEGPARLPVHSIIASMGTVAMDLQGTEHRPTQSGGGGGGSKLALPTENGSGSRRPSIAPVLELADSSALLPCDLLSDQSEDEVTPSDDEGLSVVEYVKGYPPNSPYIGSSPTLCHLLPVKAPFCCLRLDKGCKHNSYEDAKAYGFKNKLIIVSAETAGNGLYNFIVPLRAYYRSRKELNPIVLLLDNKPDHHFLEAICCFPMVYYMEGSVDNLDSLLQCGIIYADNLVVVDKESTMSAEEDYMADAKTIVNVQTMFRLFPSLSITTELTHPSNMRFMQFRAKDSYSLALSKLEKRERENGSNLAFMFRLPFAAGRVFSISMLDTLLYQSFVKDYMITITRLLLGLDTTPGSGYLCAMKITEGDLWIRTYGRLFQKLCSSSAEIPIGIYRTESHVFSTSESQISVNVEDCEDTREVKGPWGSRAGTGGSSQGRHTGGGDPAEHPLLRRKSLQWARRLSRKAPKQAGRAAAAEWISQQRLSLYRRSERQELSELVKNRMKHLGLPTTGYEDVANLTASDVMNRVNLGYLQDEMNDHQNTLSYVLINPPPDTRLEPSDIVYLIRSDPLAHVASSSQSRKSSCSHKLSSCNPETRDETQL

IC50 | Structure (SMILES)
< 250 nM | COc1cc(-c2nc3c(o2)CCC[C@@H]3NC(=O)c2cccc(C(F)(F)F)c2)ccn1 [Compound I-249a, (S)-N-(2-(2-Methoxypyridin-4-yl)-4,5,6,7-tetrahydrobenzo[d]oxazol-4-yl)-3-(trifluoromethyl)benzamide]
< 250 nM | Cc1cc(C(=O)N[C@H]2CCCc3oc(-c4ccnc(C(F)(F)F)c4)nc32)cc(C(F)(F)F)c1 [Compound I-250a, (S)-3-Methyl-5-(trifluoromethyl)-N-(2-(2-(trifluoromethyl)pyridin-4-yl)-4,5,6,7-tetrahydrobenzo[d]oxazol-4-yl)benzamide]
< 250 nM | O=C(N[C@H]1CCCc2oc(-c3ccnc(C(F)(F)F)c3)nc21)c1cccc(C(F)(F)F)c1 [Compound I-251a, (S)-3-(Trifluoromethyl)-N-(2-(2-(trifluoromethyl)pyridin-4-yl)-4,5,6,7-tetrahydrobenzo[d]oxazol-4-yl)benzamide]
< 250 nM | CCOc1cc(-c2cc3n(n2)CCC[C@@H]3NC(=O)c2cc(F)cc(C#N)c2)ccn1 [Compound I-252a, (S)-3-Cyano-N-(2-(2-ethoxypyridin-4-yl)-4,5,6,7-tetrahydropyrazolo[1,5-a]pyridin-4-yl)-5-fluorobenzamide]
< 250 nM | COc1cc(-c2cc3n(n2)CC[C@@H]3NC(=O)c2cc(F)cc(Cl)c2)ccn1 [Compound I-253a, (S)-3-Chloro-5-fluoro-N-(2-(2-methoxypyridin-4-yl)-5,6-dihydro-4H-pyrrolo[1,2-b]pyrazol-4-yl)benzamide]
< 250 nM | CCOc1cc(-c2cc3n(n2)CC[C@@H]3NC(=O)c2cc(C(F)(F)F)nn2C)ccn1 [Compound I-254a, (S)-N-(2-(2-Ethoxypyridin-4-yl)-5,6-dihydro-4H-pyrrolo[1,2-b]pyrazol-4-yl)-1-methyl-3-(trifluoromethyl)-1H-pyrazole-5-carboxamide]
< 250 nM | COc1cc(-c2cc3n(n2)CC[C@@H]3NC(=O)c2cnn(C(F)(F)F)c2)ccn1 [Compound I-255a, (S)-N-(2-(2-Methoxypyridin-4-yl)-5,6-dihydro-4H-pyrrolo[1,2-b]pyrazol-4-yl)-1-(trifluoromethyl)-1H-pyrazole-4-carboxamide]
< 250 nM | COc1cc(-c2cc3n(n2)CCCC[C@@H]3NC(=O)c2ccc(F)c(C#N)c2)ccn1 [Compound I-256a, (S)-3-Cyano-4-fluoro-N-(2-(2-methoxypyridin-4-yl)-5,6,7,8-tetrahydro-4H-pyrazolo[1,5-a]azepin-4-yl)benzamide]
< 250 nM | COc1cc(-c2cc3n(n2)CC[C@@H]3NC(=O)c2ccc(F)c(C#N)c2)ccn1 [Compound I-257a, (S)-3-Cyano-4-fluoro-N-(2-(2-methoxypyridin-4-yl)-5,6-dihydro-4H-pyrrolo[1,2-b]pyrazol-4-yl)benzamide]
< 250 nM | COc1cc(C#N)cc(C(=O)N[C@H]2CCn3nc(-c4ccnc(C(F)(F)F)c4)cc32)c1 [Compound I-258a, (S)-3-Cyano-5-methoxy-N-(2-(2-(trifluoromethyl)pyridin-4-yl)-5,6-dihydro-4H-pyrrolo[1,2-b]pyrazol-4-yl)benzamide]
< 250 nM | COc1cc(-n2cc3c(n2)CC[C@@H]3NC(=O)c2ccc(F)c(C#N)c2)ccn1 [Compound I-259a, (S)-3-Cyano-4-fluoro-N-(2-(2-methoxypyridin-4-yl)-2,4,5,6-tetrahydrocyclopenta[c]pyrazol-4-yl)benzamide]
250 to 500 nM | COc1cc(-c2nc3n(n2)CCC[C@@H]3NC(=O)c2cc(C(F)(F)F)nn2C)ccn1 [Compound I-260a, (S)—N-(2-(2-Methoxypyridin-4-yl)-5,6,7,8-tetrahydro-[1,2,4]triazolo[1,5-a]pyridin-8-yl)-1-methyl-3-(trifluoromethyl)-1H-pyrazole-5-carboxamide]
< 250 nM | CC(F)(F)c1cc(-c2cc3n(n2)CC[C@@H]3NC(=O)c2cccc(C#N)c2)ccn1 [Compound I-261a, (S)-3-Cyano-N-(2-(2-(1,1-difluoroethyl)pyridin-4-yl)-5,6-dihydro-4H-pyrrolo[1,2-b]pyrazol-4-yl)benzamide]
< 250 nM | N#Cc1cc(F)cc(C(=O)N[C@H]2CCCn3nc(-c4ccnc(C5CC5)c4)cc32)c1 [Compound I-262a]
< 250 nM | N#Cc1cccc(C(=O)N[C@H]2CCCCn3cc(-c4ccnc(C(F)(F)F)c4)cc32)c1 [Compound I-263a, (S)-3-Cyano-N-(2-(2-(trifluoromethyl)pyridin-4-yl)-6,7,8,9-tetrahydro-5H-pyrrolo[1,2-a]azepin-9-yl)benzamide]
< 250 nM | CCOc1cc(C(=O)N[C@H]2CCn3nc(-c4ccnc(C(F)(F)F)c4)cc32)ccn1 [Compound I-264a]
< 250 nM | N#Cc1cc(F)cc(C(=O)N[C@H]2CCCCn3nc(-c4ccnc(C5CC5)c4)cc32)c1 [Compound I-265a, (S)-3-Cyano-N-(2-(2-cyclopropylpyridin-4-yl)-5,6,7,8-tetrahydro-4H-pyrazolo[1,5-a]azepin-4-yl)-5-fluorobenzamide]

IC50 | Structure (SMILES)
< 250 nM | N#Cc1cc(C(=O)N[C@H]2CCn3nc(-c4ccnc(C(F)(F)F)c4)cc32)ccc1F [Compound I-266a, (S)-3-Cyano-4-fluoro-N-(2-(2-(trifluoromethyl)pyridin-4-yl)-5,6-dihydro-4H-pyrrolo[1,2-b]pyrazol-4-yl)benzamide]
< 250 nM | N#Cc1cc(C(=O)N[C@H]2CCc3nn(-c4ccnc(C(F)(F)F)c4)cc32)ccc1F [Compound I-267a, (S)-3-Cyano-4-fluoro-N-(2-(2-(trifluoromethyl)pyridin-4-yl)-2,4,5,6-tetrahydrocyclopenta[c]pyrazol-4-yl)benzamide]
< 250 nM | COc1cc(C(=O)N[C@H]2CCCCn3nc(-c4ccnc(C(C)(F)F)c4)cc32)ccn1 [Compound I-273a]
< 250 nM | CC(F)(F)c1cc(-n2cc3c(n2)CC[C@@H]3NC(=O)c2cccc(C#N)c2)ccn1 [Compound I-274a, (S)-3-Cyano-N-(2-(2-(1,1-difluoroethyl)pyridin-4-yl)-2,4,5,6-tetrahydrocyclopenta[c]pyrazol-4-yl)benzamide]
< 250 nM | COc1cc(-c2nc3c(o2)CCC[C@@H]3NC(=O)c2cc(F)cc(C#N)c2)ccn1 [Compound I-275a]
< 250 nM | N#Cc1cc(C(=O)N[C@H]2CCCCn3nc(-c4ccnc(C(F)(F)F)c4)cc32)ccc1F [Compound I-277a, (S)-3-Cyano-4-fluoro-N-(2-(2-(trifluoromethyl)pyridin-4-yl)-5,6,7,8-tetrahydro-4H-pyrazolo[1,5-a]azepin-4-yl)benzamide]
< 250 nM | N#Cc1ccc(F)c(C(=O)N[C@H]2CCCn3nc(-c4ccnc(C(F)(F)F)c4)cc32)c1 [Compound I-278a, (S)-5-Cyano-2-fluoro-N-(2-(2-(trifluoromethyl)pyridin-4-yl)-4,5,6,7-tetrahydropyrazolo[1,5-a]pyridin-4-yl)benzamide]
< 250 nM | O=C(N[C@H]1CCn2nc(-c3ccnc(C4CC4)c3)cc21)c1cc2cccnn2c1 [Compound I-279a, (S)-N-(2-(2-Cyclopropylpyridin-4-yl)-5,6-dihydro-4H-pyrrolo[1,2-b]pyrazol-4-yl)pyrrolo[1,2-b]pyridazine-6-carboxamide]
< 250 nM | Cc1cnc(C(F)(F)F)cc1-c1cc2n(n1)CCCC[C@@H]2NC(=O)c1cccc(C#N)c1 [Compound I-280a, (S)-3-Cyano-N-(2-(5-methyl-2-(trifluoromethyl)pyridin-4-yl)-5,6,7,8-tetrahydro-4H-pyrazolo[1,5-a]azepin-4-yl)benzamide]
< 250 nM | Cc1cc(C#N)cc(C(=O)N[C@H]2CCCn3nc(-c4ccnc(C5CC5)c4)cc32)c1 [Compound I-281a, (S)-3-Cyano-N-(2-(2-cyclopropylpyridin-4-yl)-4,5,6,7-tetrahydropyrazolo[1,5-a]pyridin-4-yl)-5-methylbenzamide TFA salt]
< 250 nM | CCOc1cc(C(=O)N[C@H]2CCCn3nc(-c4ccnc(C(F)(F)F)c4)cc32)ccn1 [Compound I-282a, (S)-2-Ethoxy-N-(2-(2-(trifluoromethyl)pyridin-4-yl)-4,5,6,7-tetrahydropyrazolo[1,5-a]pyridin-4-yl)isonicotinamide]
< 250 nM | CCOc1cc(C(=O)N[C@H]2CCCCn3nc(-c4ccnc(C(F)(F)F)c4)cc32)ccn1 [Compound I-283a, (S)-2-Ethoxy-N-(2-(2-(trifluoromethyl)pyridin-4-yl)-5,6,7,8-tetrahydro-4H-pyrazolo[1,5-a]azepin-4-yl)isonicotinamide]
< 250 nM | COc1cc(-c2cc3n(n2)CCC[C@@H]3NC(=O)c2cc(C#N)cc(C(F)(F)F)c2)ccn1 [Compound I-284a, (S)-3-Cyano-N-(2-(2-methoxypyridin-4-yl)-4,5,6,7-tetrahydropyrazolo[1,5-a]pyridin-4-yl)-5-(trifluoromethyl)benzamide]
< 250 nM | COc1cc(-c2cc3n(n2)CC[C@@H]3NC(=O)c2cc(C#N)cc(C(F)(F)F)c2)ccn1 [Compound I-285a, (S)-3-Cyano-N-(2-(2-methoxypyridin-4-yl)-5,6-dihydro-4H-pyrrolo[1,2-b]pyrazol-4-yl)-5-(trifluoromethyl)benzamide]
< 250 nM | COc1cc(-c2cc3n(n2)CC[C@@H]3NC(=O)c2cccc(C(F)(F)F)c2)ccn1 [Compound I-286a, (S)-N-(2-(2-Methoxypyridin-4-yl)-5,6-dihydro-4H-pyrrolo[1,2-b]pyrazol-4-yl)-3-(trifluoromethyl)benzamide]
< 250 nM | COc1cc(-c2cc3n(n2)CCC[C@@H]3NC(=O)c2cc(F)cc(C(F)(F)F)c2)ccn1 [Compound I-287a, (S)-3-Fluoro-N-(2-(2-methoxypyridin-4-yl)-4,5,6,7-tetrahydropyrazolo[1,5-a]pyridin-4-yl)-5-(trifluoromethyl)benzamide]
< 250 nM | N#Cc1cc(C(=O)N[C@H]2CCn3nc(-c4ccnc(C(F)(F)F)c4)cc32)cc(C(F)(F)F)c1 [Compound I-288a, (S)-3-Cyano-5-(trifluoromethyl)-N-(2-(2-(trifluoromethyl)pyridin-4-yl)-5,6-dihydro-4H-pyrrolo[1,2-b]pyrazol-4-yl)benzamide]
